What was measured:
[1] = tested on: neurotransmitter receptors (5HT, α,β); assay: Effect on neurotransmitter receptors (panel as a whole); format: binding; conditions: exception of the dopaminergic receptors
Protocol: The competition experiments between the different radioligands and the reference molecules are carried out under the standard binding conditions according to O'BRIEN R. A., Receptor binding in drug research. In: Clinical Pharmacology, vol. 5, DEKKER M. Inc., New York and Basle (1986). In all cases, after the required linkage time, the bound radioactivity is separated from the free component by in vacuo filtration on a GF/C filter.

type L calcium channels = assay: Binding: displacement of [3H] D888 at the Ca2+ channel; conditions: read-out: K0.5 (50% of specifically fixed radioactivity displaced)
Alpha adrenergic α2 = assay: Binding to neurotransmitter receptors: alpha2 adrenergic ([3H] Rauwolscine); conditions: α2, [3H] Rauwolscine; read-out: K0.5
Dopamine D2 = Dopamine D2 (Homo sapiens, UniProt P14416); assay: Binding to neurotransmitter receptors: D2 ([3H] 205 501); conditions: read-out: K0.5
Dopamine D2, sequence (P14416 whole entry): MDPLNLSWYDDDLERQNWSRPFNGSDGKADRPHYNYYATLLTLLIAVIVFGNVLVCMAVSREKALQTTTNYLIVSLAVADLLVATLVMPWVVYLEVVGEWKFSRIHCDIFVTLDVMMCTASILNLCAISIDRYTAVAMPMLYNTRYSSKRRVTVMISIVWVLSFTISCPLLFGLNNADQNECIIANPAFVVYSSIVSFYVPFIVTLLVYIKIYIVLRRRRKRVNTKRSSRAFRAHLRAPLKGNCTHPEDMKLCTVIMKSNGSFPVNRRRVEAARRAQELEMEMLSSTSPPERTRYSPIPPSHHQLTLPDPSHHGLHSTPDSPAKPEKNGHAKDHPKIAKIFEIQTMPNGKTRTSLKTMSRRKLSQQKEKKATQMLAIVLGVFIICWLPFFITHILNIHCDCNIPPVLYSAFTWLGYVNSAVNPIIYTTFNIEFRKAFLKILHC

COc1ccc(CSC2CCN(CC=Cc3ccccc3)CC2)c(OC)c1OC [Example 1, 4-(2,3,4-trimethoxybenzylthio)-1-cinnamylpiperidine]
interaction with neurotransmitter receptors (in words) [1]: interacts in a relatively non-specific manner and with low affinity with neurotransmitter receptors (5HT, α,β) with the exception of the dopaminergic receptors | IC50 (type L calcium channels): 1300 nM | IC50 (Alpha adrenergic α2): 900 nM | IC50 (Dopamine D2): 300 nM
